Molecules are shown by their SMILES. Like-named read-outs stand apart in the source and are kept apart here.

For assay [1], the target named is T1, GSPT1 (Homo sapiens, UniProt P15170+Q96SW2). Briefly: GSPT1 degradation by Compound 345 in cancer cell lines (western blot). The conditions noted are these: Compound 345 treated NSCLC lines plus Bortezomib 0.2 μM. Further details: endogenous in cells; host or cells: MM1 S (ATCC CRL-2974). The format is cell-based. As to the method:
NCI-H1155 and ABC-1 were taken as representative of N-Myc positive NSCLC. NCI-H2023 and NCI-H441 as of N-Myc low representatives. 10A: western blotting analysis performed after 6 (NCI-H1155 and ABC-1) or 24 hr (NCI-H2023 and NCI-H441) posttreatment. […] 10B: corresponding densitometry analyses of GSPT1 normalized to GAPDH. DC50 and Dmax as indicated.
NCI-H1155 and ABC-1 were taken as representative of N-Myc high NSCLC. NCI-H2023 and NCI-H441 as of N-Myc low representatives. Left: densitometry analysis of GSPT1 normalized to GAPDH from western blotting following treatment with Compound 345 (as indicated). Right: 72 hr viability assay following treatment with Compound 345 as assessed by Cell Titer Glo. For both the GSPT1 expression plot and the cell viability plot, two Myc-driven cancer cell lines are represented by upright triangles and diamonds. Two non-Myc-driven cancer cell lines are represented by upside down triangles and circles.
NCI-H1155 and NCI-H2023 were taken as representative of N-Myc high and low NSCLC. 12A: western blot analysis probing for GSPT1 and N-Myc following treatment with Compound 345 (as indicated). Tubulin was used as a loading control. N-Myc could not be detected by western blotting in the NCI-H2023 line. 12B: Single-sample gene set enrichment analysis (ssGSEA) results for a Myc target gene set at 6 hours (left) and 24 hours (right) after treatment. ssGSEA scores were normalized to DMSOs for each cell line and averaged for three replicates. Error bars denote+/−1 s.d. across replicates.
NCI-H1836 and NCI-H1876 were taken as two representatives of L-Myc high SCLC. Western blot analysis probing for GSPT1 and L-Myc following treatment with Compound 345 as indicated. GAPDH was used as a loading control.
FIGS. 16A, 16B and 16C: Activity of Compound 345 in the c-Myc high multiple myeloma MM1S cell line. […] GAPDH was used as a loading control. […] Lenalidomide was used as a benchmark. 16C: Antiproliferative activity of Compound 345 (as indicated) following treatment with Compound 345 for 72 hr as assessed by Cell Titer Glo assay.
FIGS. 18A, 18B and 18C: Activity of Compound 345 in the c-Myc high WSU-DLCL2 lymphoma cell line. […] GAPDH was used as a loading control. 18B: Antiproliferative activity of Compound 345 (as indicated) following treatment with Compound 345 for 72 hr as assessed by Cell Titer Glo assay. […] Mice were dosed daily PO with vehicle or Compound 345 at 3, 10 mg/kg (as indicated). Tumor volumes were measured twice weekly. X-axis represents the number of days for treatment duration; y-axis represents mean tumor volume (in mm^3)±SEM. CHOP was used as a positive control for this model. Drug-free vehicle is represented by black circles; CHOP combination represented by light squares; Compound 345 3 mg/kg represented by triangles; Compound 345 10 mg/kg represented by dark squares.
FIGS. 19A, 19B, and 19C: Activity of Compound 345 in the c-Myc high DOHH-2 lymphoma cell line. […] GAPDH was used as a loading control. 19B: Antiproliferative activity of Compound 345 (as indicated) following treatment with Compound 345 for 72 hr as assessed by Cell Titer Glo assay. […] Mice were dosed daily PO with vehicle or Compound 345 at 3, 10 mg/kg (as indicated). Tumor volumes were measured twice weekly. X-axis represents the number of days for treatment duration; y-axis represents mean tumor volume (in mm^3)±SEM. CHOP was used as a positive control for this model.
Western blot analysis performed 24 hr post treatment initiation. GAPDH was used as a loading control. GSPT1 DC50 and Dmax as indicated.

The target of assay [2] is T2, Full length wild-type cereblon CRBN (Homo sapiens, UniProt Q96SW2).
T2 construct: Full length wild-type cereblon CRBN (80.0 nM, 10 μL) was incubated in assay buffer
T2 sequence (Q96SW2 whole entry): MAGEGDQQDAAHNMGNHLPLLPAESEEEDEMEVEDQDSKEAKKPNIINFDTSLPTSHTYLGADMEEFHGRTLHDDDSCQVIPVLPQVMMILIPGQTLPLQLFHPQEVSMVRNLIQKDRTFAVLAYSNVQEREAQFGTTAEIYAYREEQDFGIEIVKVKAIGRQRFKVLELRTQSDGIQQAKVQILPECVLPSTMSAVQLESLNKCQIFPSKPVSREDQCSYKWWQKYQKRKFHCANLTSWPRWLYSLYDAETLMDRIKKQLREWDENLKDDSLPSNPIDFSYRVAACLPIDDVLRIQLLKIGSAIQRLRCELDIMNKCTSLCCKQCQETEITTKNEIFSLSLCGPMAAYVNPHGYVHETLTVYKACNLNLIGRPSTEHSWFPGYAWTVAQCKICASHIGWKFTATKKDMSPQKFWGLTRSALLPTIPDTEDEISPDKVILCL
Briefly: Fluorescence polarization (FP) assay indicating cereblon binding. The conditions noted are these: read-out: IC50 value. An outline of the steps:
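Full-length wild-type CRBN at 80.0 nM was preincubated 30 min at room temperature with compound (12-point curve, 300–0.937 or 3000–9.3 nM) in 20 mM HEPES pH 8.0, 150 NaCl, 0.5 mM TCEP, 0.05% Tween 20. Cy5-type thalidomide-based probe added at 5 nM final; FP read after 12 h (ex 590/em 675 nm), normalized to DMSO, IC50 fitted.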

The test system of assay [3] is HMEC engineered to express c-Myc tagged with EGFP. In words: 3D spheroid assay, myc-HMEC (CellTiterGlo3D). The format is cell-based. Particulars: Homo sapiens, 120 h, myc-HMEC, 5 days, read-out: 3D spheroid assay Code (EC50, myc-HMEC assay). Here is the method:
(§1) Human mammary epithelial cells (HMEC) were engineered to express either c-Myc tagged with EGFP or EGFP alone (non myc) (analogous but distinct from Kessler J D et al, Science. 2012 Jan. 20; 335(6066):348-53. doi: 10.1126/science.1212728; Hsu T Y et al, Nature. 2015 Sep. 17; 525(7569):384-8. doi: 10.1038/nature14985). The engineered cells were seeded at 1000 (myc) or 4000 (non myc) cells/well in a 384 ultra-low attachment plate in a total volume of 40 μL HMEC cell culture media (DMEM/F12+10% HI-FBS+15 mM HEPES+0.5 ug/ml Hydrocortisone+10 ug/ml Insulin+20 ng/ml EGF). Plates were spun at 1200 rpm for 5 minutes at room temperature to ensure that cells have gathered in the middle of the well and incubated at 37° C. for 48 hrs before firing with compounds. On Day 2 (48 h post seeding) cells were imaged (brightfield and EGFP fluorescence) using the Celigo imaging cytometer prior to firing compounds. For primary screens, compounds were added at three concentrations (1.25, 10 and 30 uM) in a volume of 120 nL using the ECHO acoustic dispenser and spun at 2000 rpm for 2 minutes at room temperature before incubating at 37° C. for 5 days. […] On Day 7, prior to measuring cell viability using CellTiterGlo3D, cells were imaged (brightfield and EGFP fluorescence) on the Celigo imaging cytometer. The CellTiterGlo3D reagent is added at 30 uL/well and incubated at room temperature for 30 mins. After 30 mins of incubation, luminescence readings were recorded using the Perkin Elmer EnVision reader.
(Cellular ATP, detected with luciferase, serves as a proxy for viable cell number.)

In assay [4] the test system is HMEC engineered to express EGFP alone (non myc). In words: 3D spheroid assay, non myc-HMEC (CellTiterGlo3D). Type of assay: cell-based. The conditions noted are these: Homo sapiens, 120 h, 5 days, read-out: 3D spheroid assay Code (EC50, non myc-HMEC assay). As to the method: as §1
The target of assay [5] is T1, GSPT1. In words: GSPT1 degradation immunofluorescence assay in CAL-51 cells. Type of assay: cell-based. Further details: endogenous in cells; host or cells: CAL-51 (DSMZ ACC302). The conditions noted are these: 6 hours, Table 4, read-out: Activity for GSPT1 degradation, Code (DC50). Here is the method: CAL-51 cells were purchased from DSMZ (cat. Number ACC302), sub-cultured in 90% Dulbecco's MEM (4.5 g/L glucose, Gibco 11965)+10% heat inactivated FBS (BioConcept, 2-01F1361) and incubated at 37° C., 5% CO2. For the assay, imaging microtiterplate Cell Carrier 96 Ultra (Perkin Elmer 6055302) were pre-coated with Fibronectin (Sigma F085, 30 μl at 0.2 μg/ml) in PBS (100 μl, Gibco 14190) for 45 min at room temperature, rinsed with PBS and CAL-51 cells (30K cells/well) were plated and let to adhere overnight. Cells were treated with compounds typically using a serial dilution ranging from 30 μM to 0.1 nM for 6 hours. Compounds were stored at 10 mM DMSO stocks. Vehicle (DMSO), positive (CC-885, 10 μM) and rescue controls (positive control plus 0.2 μM bortezomib) were also included at this stage. Cells were subsequently rinsed with PBS and fixed in 10% Formalin solution (50 μl, Sigma HT5011)) for 20 mins at room temperature. Following three consecutive PBS washes (100 μl), cells were permeabilized in 0.1% Triton X-100 in PBS (Sigma 93443, 50 μl) for 15 mins at room temperature. Following three further PBS washes, 50 μl blocking buffer (1% BSA, Sigma A4503, in PBS) was added for 45 min for signal-to-noise reduction. Primary antibody (human GSPT1, Sigma HPA052488) was diluted in blocking buffer (dil. 1/300, 35 μl/well) and incubated with the cells overnight at 4° C. After three PBS washes, Alexa-fluor 488 coupled secondary antibodies (Invitrogen, A32731, dil. 1/1000), Alexa-fluor 647-Phalloidin (Invitrogen, A22287, dil. 1/200) and DAPI (Thermo, #62248, dil. 1/1000) were diluted in blocking buffer and incubated with the samples for 2 hours at room temperature. After three final PBS washes, samples were conserved in 100 μl PBS in the dark, until measurement. Image acquisition was performed on the Operetta High-Content Imager (Perkin-Elmer). Fluorescence intensity of Alexa-Fluor 488 (GSPT1), Alexa-Fluor 647 (Actin) and DAPI (Nucleus) were measured. For the determination of GSPT1 DC50 values, a custom algorithm implemented in the PerkinElmer image analysis software Harmony-Acapella® was developed. After user-defined setting of adjustment parameters, the analysis was run identically without human intervention for all image fields. DAPI staining of the nuclei was used to determine the location of cells using standard nuclei detection modules. Segmentation artifacts were removed by threshold-based filters for area, roundness and intensity. The outline of the cells was determined analogously from the sum of the normalized, smoothed DAPI and Actin channel, starting from each nucleus. The Alexa-Fluor 488 (GSPT1) signal intensity in each cell was finally measured, in order to obtain a Mean intensity per cell. GSPT1 degradation (DC50) was calculated after normalization to controls and data import in CDD vault Database, using non-linear regression.

T1 sequence (P15170 whole entry): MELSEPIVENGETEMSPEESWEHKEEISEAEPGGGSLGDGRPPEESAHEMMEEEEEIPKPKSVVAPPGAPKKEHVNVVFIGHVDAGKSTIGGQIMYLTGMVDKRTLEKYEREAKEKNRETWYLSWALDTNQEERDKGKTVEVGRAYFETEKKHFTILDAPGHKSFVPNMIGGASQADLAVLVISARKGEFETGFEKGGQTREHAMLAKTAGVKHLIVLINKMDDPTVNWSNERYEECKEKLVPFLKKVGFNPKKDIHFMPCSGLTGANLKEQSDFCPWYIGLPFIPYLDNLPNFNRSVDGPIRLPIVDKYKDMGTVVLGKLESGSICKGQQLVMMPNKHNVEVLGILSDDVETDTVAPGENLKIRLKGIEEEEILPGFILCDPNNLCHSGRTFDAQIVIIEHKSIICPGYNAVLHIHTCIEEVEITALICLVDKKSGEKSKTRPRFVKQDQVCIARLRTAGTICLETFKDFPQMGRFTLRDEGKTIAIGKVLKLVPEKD
T1 sequence (Q96SW2 whole entry): as the sequence (Q96SW2 whole entry) above
T1 sequence (Q16531 whole entry partner): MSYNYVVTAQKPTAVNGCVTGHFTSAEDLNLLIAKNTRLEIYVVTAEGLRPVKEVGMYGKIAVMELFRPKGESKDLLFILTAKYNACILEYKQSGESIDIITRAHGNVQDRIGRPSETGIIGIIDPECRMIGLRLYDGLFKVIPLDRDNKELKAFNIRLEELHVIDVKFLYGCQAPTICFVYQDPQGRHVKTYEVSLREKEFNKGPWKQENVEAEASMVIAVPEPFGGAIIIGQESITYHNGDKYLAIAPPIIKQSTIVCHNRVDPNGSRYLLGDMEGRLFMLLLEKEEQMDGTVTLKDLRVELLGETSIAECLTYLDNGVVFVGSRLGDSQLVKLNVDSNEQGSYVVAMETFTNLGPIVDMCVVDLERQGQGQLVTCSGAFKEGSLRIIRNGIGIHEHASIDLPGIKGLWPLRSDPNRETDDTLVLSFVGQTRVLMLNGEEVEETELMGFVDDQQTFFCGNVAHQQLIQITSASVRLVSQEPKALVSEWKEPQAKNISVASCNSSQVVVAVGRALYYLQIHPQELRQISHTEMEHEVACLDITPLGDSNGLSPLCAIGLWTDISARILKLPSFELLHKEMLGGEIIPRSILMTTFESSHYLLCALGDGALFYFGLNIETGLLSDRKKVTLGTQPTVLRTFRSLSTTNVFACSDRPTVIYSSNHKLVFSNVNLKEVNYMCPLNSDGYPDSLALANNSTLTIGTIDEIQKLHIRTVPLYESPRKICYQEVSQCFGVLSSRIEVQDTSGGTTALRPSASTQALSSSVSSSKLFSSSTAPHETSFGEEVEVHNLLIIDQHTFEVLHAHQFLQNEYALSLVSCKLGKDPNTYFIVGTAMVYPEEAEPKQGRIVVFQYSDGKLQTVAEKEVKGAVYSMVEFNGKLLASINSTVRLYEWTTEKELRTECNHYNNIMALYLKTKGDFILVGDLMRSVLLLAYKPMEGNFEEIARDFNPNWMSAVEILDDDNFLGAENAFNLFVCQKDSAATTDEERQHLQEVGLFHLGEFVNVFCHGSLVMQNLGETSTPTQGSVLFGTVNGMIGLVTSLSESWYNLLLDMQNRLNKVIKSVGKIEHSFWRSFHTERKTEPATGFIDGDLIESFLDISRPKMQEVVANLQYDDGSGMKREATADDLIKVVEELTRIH

As to `CC(C)C[C@H](NC(=O)[C@H](Cc1ccccc1)NC(=O)c1cnccn1)B(O)O` [Bortezomib, reference compound], the “GSPT1 level with proteasome inhibitor added” value in assay [1] was “rescued GSPT1 from degradation”.
As for `COc1ccc(CCNC(=O)NCc2ccc3c(c2)C(=O)N(C2CCC(=O)NC2=O)C3)cc1` (stereo not drawn) [Compound 51], the concentration for half-maximal inhibition (IC50) in assay [2] (bounds stated) is less than 0.6 µM. In addition, the concentration for a half-maximal effect (EC50) in assay [3] was greater than 2 µM; in assay [4], greater than 10 µM.
Taken in the same sequence, the figures for `COc1ccccc1CNC(=O)NCc1ccc2c(c1)C(=O)N(C1CCC(=O)NC1=O)C2` (stereo not drawn) [Compound 60] were less than 0.6 µM, greater than 2 µM and greater than 10 µM.
As to `O=C1CCC(N2Cc3ccc(CNC(=O)Nc4ccc(Br)cc4)cc3C2=O)C(=O)N1` (stereo not drawn) [Compound 9], the figures for the concentration for half-maximal inhibition (IC50) in assay [2] (bound stated) and in assay [2] (bounds stated) were less than 1.1 µM and less than 0.6 µM, respectively. Also, the 50% effective concentration (EC50) in assay [3] is greater than 2 µM; in assay [4], greater than 10 µM. The DC50 in assay [5] was greater than 0.3 µM.

A word on the IC50: it is the point on the concentration scale where inhibition reaches its midpoint. Broadly, the EC50 is the concentration that produces a half-maximal response. Broadly, the DC50 is the concentration giving 50% degradation.

(Values after US20240261274A1, “TREATMENT OF MYC-DRIVEN CANCERS WITH GSPT1 DEGRADERS” (MONTE ROSA THERAPEUTICS, INC., priority 2021, published 2024).)
